Measurements as given in PubChem BioAssay (NCI).
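How tested: cells in 96-well plates exposed to compound for 48 hours at five concentrations. The concentration for full growth arrest is given as TGI.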

Tests used:
Assay in all cases: growth of human tumour cells (NCI), 48 h
DU-145 prostate = test system: DU-145 prostate
EKVX NSCLC = test system: EKVX NSCLC
HT29 colon = test system: HT29 colon
M14 melanoma = test system: M14 melanoma
MOLT-4 leukemia = test system: MOLT-4 leukemia
NCI-H522 lung = test system: NCI-H522 lung
OVCAR-3 ovarian = test system: OVCAR-3 ovarian
OVCAR-5 ovarian = test system: OVCAR-5 ovarian
PC-3 prostate = test system: PC-3 prostate
RPMI-8226 leukemia = test system: RPMI-8226 leukemia
RXF 393 renal = test system: RXF 393 renal
SF-295 CNS = test system: SF-295 CNS
SK-MEL-5 melanoma = test system: SK-MEL-5 melanoma
SK-OV-3 ovarian = test system: SK-OV-3 ovarian
TK-10 renal = test system: TK-10 renal
UACC-257 melanoma = test system: UACC-257 melanoma

Structure (SMILES) | TGI (DU-145 prostate) [µM] | TGI (EKVX NSCLC) [µM] | TGI (HT29 colon) [µM] | TGI (M14 melanoma) [µM] | TGI (MOLT-4 leukemia) [µM] | TGI (NCI-H522 lung) [µM] | TGI (OVCAR-3 ovarian) [µM] | TGI (OVCAR-5 ovarian) [µM] | TGI (PC-3 prostate) [µM] | TGI (RPMI-8226 leukemia) [µM] | TGI (RXF 393 renal) [µM] | TGI (SF-295 CNS) [µM] | TGI (SK-MEL-5 melanoma) [µM] | TGI (SK-OV-3 ovarian) [µM] | TGI (TK-10 renal) [µM] | TGI (UACC-257 melanoma) [µM]
[N-]=[N+]=Nc1c([N+](=O)[O-])c(Cl)nc2ccccc12 | 5.35 | 7.45 | 5.09 | 3.27 | 0.89 | 0.866 | 2.86 | 5.63 | 4.75 | > 20.8 | 3.28 | 38.5 | 21.3 | 27.7 | 3.78 | 3.45
CSc1nc2c(N)ncnc2n1C | > 100 | > 100 | > 100 | > 100 | > 100 | > 100 | > 100 | > 100 | > 100 | > 100 | > 100 | > 100 | > 100 | > 100 | > 100 | > 100
CC1C/C(=N\N(C)C)C(C#N)(C#N)C1(C#N)C#N (centres undefined) | 34 | 56.1 | 18.7 | 31.7 | 6.9 | 4.13 | 33.9 | 48.5 | 47.2 | 25.5 | 23.9 | 43.2 | 44.2 | > 67.3 | 27.6 | 28
CCn1c(=O)ccc2ccc(N(CCO)CCO)nc21 | > 100 | > 100 | > 100 | > 100 | > 100 | > 100 | > 100 | > 100 | > 100 | > 100 | > 100 | > 100 | > 100 | > 100 | > 100 | > 100
Cc1ccc(-n2c(Cn3nnc(-c4cccnc4)n3)nn(C3OC(COC(=O)c4ccccc4)C(OC(=O)c4ccccc4)C3OC(=O)c3ccccc3)c2=S)cc1 (centres undefined) | > 100 | > 100 | > 100 | > 100 | > 100 | > 100 | > 100 | > 100 | > 100 | > 100 | > 100 | > 100 | > 100 | > 100 | > 100 | > 100
c1ccc2sc(C3(N4CCCCC4)CCCCCC3)cc2c1 | > 100 | 47.2 | 31.7 | 67.2 | 29.6 | 32.8 | 37.2 | 36.7 | 29.3 | 28.7 | 28.6 | 49.1 | 31.3 | 66.7 | 49.2 | 34.9
CC1(C)CN=C(Nc2ccc(Cl)cc2)S1 | > 100 | > 100 | > 100 | > 100 | > 100 | > 100 | > 100 | > 100 | > 100 | > 100 | > 100 | > 100 | > 100 | > 100 | > 100 | > 100
CCN(CC)Cc1nc(C2CCC([N+](=O)[O-])O2)no1 (centres undefined) | > 100 | > 100 | 44.5 | 28.3 | > 100 | 31 | 56.7 | 84.2 | > 100 | > 100 | 86.8 | > 100 | 30.2 | > 100 | > 100 | 40.8
CCN(CC)C(=S)SC1CCOP(=O)(N(CCCl)CCCl)N1C (centres undefined) | > 100 | > 96.4 | > 100 | > 54.1 | 49.2 | 2.18 | > 100 | > 100 | > 100 | > 61.2 | 76.1 | > 100 | 30.8 | > 100 | > 100 | > 56.1
